Article PMC8318001, “Terpene Synthase-b and Terpene Synthase-e/f Genes Produce Monoterpenes for Phalaenopsis bellina Floral Scent” (Frontiers in Plant Science, 2021)

What was measured:
Test in all cases: GC-MS of reaction products
Format in all cases: biochemical
Settings in all cases: 2.5 uM GDP, HEPES pH 7.4, 0.1 M KCl, 10 mM MgCl2, 10 mM DTT, 10% glycerol, 30 °C, 1 h
PbTPS9 = target: T1, PbTPS9 (Phalaenopsis bellina, UniProt A0A8F9U9F3)
T1 construct: gene TPS9; ORF in pET-28b, His-tag at N- and C-termini, E. coli C41 (DE3) pLysS, TALON purified; tag removal not mentioned
T1 sequence (A0A8F9U9F3 1-598 limits assumed): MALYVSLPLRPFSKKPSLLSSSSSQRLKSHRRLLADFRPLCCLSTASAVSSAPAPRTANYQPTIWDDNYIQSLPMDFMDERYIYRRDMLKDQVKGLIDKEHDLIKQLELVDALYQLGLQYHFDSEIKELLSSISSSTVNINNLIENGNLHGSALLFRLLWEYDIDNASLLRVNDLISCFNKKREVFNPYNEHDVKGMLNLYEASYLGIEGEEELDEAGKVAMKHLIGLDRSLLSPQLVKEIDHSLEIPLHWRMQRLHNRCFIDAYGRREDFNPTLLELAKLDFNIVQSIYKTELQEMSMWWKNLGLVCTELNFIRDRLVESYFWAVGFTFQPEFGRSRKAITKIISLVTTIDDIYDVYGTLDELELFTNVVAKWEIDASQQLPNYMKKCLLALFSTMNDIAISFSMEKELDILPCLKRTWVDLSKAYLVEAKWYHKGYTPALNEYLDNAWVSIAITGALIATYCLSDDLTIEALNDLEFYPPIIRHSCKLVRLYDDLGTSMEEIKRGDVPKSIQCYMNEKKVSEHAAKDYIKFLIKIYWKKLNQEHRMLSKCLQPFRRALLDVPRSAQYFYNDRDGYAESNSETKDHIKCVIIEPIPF

PbTPS4 = target: T2, PbTPS4 (Phalaenopsis bellina, UniProt A0A8F9U8Q1)
T2 construct: gene TPS4; ORF in pET-28b, His-tag at N- and C-termini, E. coli C41 (DE3) pLysS, TALON purified; tag removal not mentioned
T2 sequence (A0A8F9U8Q1 1-868): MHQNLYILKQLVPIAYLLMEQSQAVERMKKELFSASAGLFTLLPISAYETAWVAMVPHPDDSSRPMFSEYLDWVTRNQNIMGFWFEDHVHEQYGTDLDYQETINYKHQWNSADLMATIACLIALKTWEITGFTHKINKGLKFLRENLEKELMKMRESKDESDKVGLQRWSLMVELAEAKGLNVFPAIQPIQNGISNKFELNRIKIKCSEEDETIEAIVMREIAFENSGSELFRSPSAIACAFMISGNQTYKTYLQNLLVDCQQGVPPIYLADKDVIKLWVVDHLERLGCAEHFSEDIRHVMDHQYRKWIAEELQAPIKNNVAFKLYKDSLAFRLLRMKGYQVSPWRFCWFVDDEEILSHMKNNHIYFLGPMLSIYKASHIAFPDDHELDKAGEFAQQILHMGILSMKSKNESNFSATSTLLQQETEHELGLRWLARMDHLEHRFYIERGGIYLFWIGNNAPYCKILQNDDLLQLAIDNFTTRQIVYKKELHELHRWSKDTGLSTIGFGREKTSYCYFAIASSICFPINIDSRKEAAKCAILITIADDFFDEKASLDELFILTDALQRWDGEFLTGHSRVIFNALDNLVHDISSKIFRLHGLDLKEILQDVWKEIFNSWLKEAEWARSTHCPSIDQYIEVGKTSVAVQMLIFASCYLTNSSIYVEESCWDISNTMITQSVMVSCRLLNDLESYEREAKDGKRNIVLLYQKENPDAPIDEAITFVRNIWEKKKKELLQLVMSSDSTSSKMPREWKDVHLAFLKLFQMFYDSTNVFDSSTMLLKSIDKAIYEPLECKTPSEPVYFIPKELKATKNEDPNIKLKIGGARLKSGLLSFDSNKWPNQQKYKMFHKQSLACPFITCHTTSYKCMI

PbTPS5 = target: T3, PbTPS5 (Phalaenopsis bellina, UniProt A0A8F9UAD9)
T3 construct: gene TPS5; tag removal not mentioned
T3 sequence (A0A8F9UAD9 1-605 limits assumed): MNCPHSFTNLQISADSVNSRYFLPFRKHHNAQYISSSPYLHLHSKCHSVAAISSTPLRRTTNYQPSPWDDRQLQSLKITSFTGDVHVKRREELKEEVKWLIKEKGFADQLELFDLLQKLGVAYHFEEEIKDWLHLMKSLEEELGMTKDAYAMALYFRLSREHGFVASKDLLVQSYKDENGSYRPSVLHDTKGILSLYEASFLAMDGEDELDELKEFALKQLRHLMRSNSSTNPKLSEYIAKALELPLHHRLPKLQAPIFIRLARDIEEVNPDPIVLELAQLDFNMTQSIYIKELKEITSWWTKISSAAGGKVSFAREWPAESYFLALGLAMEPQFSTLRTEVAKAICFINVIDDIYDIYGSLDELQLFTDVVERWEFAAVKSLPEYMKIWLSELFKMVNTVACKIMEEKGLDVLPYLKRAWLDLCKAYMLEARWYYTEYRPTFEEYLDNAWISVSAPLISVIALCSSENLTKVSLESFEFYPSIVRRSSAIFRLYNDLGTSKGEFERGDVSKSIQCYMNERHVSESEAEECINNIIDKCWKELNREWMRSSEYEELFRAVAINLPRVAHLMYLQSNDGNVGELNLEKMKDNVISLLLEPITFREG

PbTPS3 = target: T4, PbTPS3 (Phalaenopsis bellina, UniProt A0A8F9U8Q4)
T4 construct: gene TPS3; ORF in pET-28b, His-tag at N- and C-termini, E. coli C41 (DE3) pLysS, TALON purified; tag removal not mentioned
T4 sequence (A0A8F9U8Q4 1-769): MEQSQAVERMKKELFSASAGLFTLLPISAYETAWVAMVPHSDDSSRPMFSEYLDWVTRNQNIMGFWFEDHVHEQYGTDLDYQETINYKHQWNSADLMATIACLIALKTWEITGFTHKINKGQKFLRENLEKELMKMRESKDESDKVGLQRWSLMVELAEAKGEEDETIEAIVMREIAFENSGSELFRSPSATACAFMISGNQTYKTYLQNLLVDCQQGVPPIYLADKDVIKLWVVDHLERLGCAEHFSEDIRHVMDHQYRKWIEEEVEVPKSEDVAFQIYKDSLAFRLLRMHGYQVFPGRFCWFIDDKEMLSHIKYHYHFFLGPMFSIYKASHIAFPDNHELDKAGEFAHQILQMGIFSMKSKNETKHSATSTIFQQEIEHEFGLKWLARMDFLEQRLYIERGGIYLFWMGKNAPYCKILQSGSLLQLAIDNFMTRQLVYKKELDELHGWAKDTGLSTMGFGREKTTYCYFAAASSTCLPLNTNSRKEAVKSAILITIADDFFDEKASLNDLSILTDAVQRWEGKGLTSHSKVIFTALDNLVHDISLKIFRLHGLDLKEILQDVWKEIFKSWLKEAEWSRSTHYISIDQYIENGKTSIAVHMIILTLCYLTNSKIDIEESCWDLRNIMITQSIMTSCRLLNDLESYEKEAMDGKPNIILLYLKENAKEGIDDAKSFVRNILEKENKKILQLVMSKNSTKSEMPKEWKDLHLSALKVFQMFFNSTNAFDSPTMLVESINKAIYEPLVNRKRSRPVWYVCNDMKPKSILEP

Structure (SMILES): CC(C)=CCC/C(C)=C/COP(=O)(O)OP(=O)(O)O [GDP]
- GC-MS of reaction products (PbTPS9): The product of PbTPS9 was geraniol (Figure 5B)
- GC-MS of reaction products (PbTPS4): PbTPS4 was a linalool synthase and used GDP as the substrate (Figure 6B)
- GC-MS of reaction products (PbTPS5): Geraniol was detected as the main product catalyzed by PbTPS5 (Figure 5A)
- GC-MS of reaction products (PbTPS3): PbTPS3 was a dual enzyme as a linalool/(β)-cis-ocimene synthase (Figure 6A)
